# Reference: patent US20250312417A1, “Methods for Mitigating Lung Injury in Conjunction with Exposure to Radiation and/or Radiation or Radiomimetic Treatments” (Janssen Pharmaceutica NV, priority 2022, published 2025)
# Tests used:
# [1] = test system: lungs of mice after whole thoracic radiation (WTI); assay: Senescence marker mRNA expression in lungs (qPCR) post-WTI; format: in vivo, C57BL/6 male mice; details: 7 months post-WTI 16 Gy; 0.3 mg/kg subcutaneously 1 day prior to WTI; p<0.05
# Description: FIGS. 4A-4C show the effect of TPOm-pretreatment (1 day before irradiation at 0.3 mg/kg body weight by subcutaneous injection) on senescence gene mRNA and protein expression in lungs of mice at 7 months post-WTI. mRNA and protein levels assessed by qPCR and western blot, respectively. […] Data are shown as means±SE. *P <0.05 vs. vehicle treated mice. […] Expression in the naive group is designated as 1 for comparison.
# (§1) Methods: C57BL/6 male mice (9-12 weeks old) were administered with the TPOm RWJ-800088 (0.3 mg/kg) or PBS (vehicle) subcutaneously 1 day prior to whole thoracic radiation (WTI) at 16 Gy delivered by x-ray. Mice were sacrificed at 2 weeks and 7 months (n=5/time point/group) post-WTI to collect the lung tissues for various analysis. Groups of mice (n=10/group) exposed to 18 Gy WTI were also subjected to an 8-month survival study.
# [2] = test system: lungs of mice after whole thoracic radiation (WTI); assay: Proinflammatory chemokine mRNA expression in lungs after whole thoracic radiation (WTI) 16 Gy; format: in vivo, C57BL/6 male mice; details: 2 weeks post-WTI 16 Gy; 0.3 mg/kg subcutaneously 1 day prior to WTI; p<0.05
# Description: Lung data is presented as fold change of chemokine expression normalized to Hprt1 expression (n=5 for Naïve, n=5 for Vehicle (phosphate buffered saline) and TPOm pretreatment). Expression in the naive group is designated as 1 for comparison. Data are shown as means±SE. *P<0.05 vs. vehicle treated mice.
# as §1
# [3] = test system: lungs of mice after whole thoracic radiation (WTI); assay: Pulmonary density by microCT post-WTI; format: in vivo, C57BL/6 male mice; details: 7 months post-WTI 16 Gy; 0.3 mg/kg subcutaneously 1 day prior to WTI; p<0.05
# Description: FIGS. 5A-5C show the effect of TPOm-pretreatment (1 day before irradiation at 0.3 mg/kg body weight by subcutaneous injection) on pulmonary density of mice at 7 months post-WTI. Pulmonary density imaged by microCT and measured by microCT analysis software. […] (n=3 for Naïve, n=5 for vehicle and n=4 for TPOm pretreatment). *P <0.05 vs. vehicle treated mice.
# as §1
# [4] = test system: lungs of mice after whole thoracic radiation (WTI); assay: H&E staining of lung sections for cellularity and immune infiltration post-WTI; format: in vivo, C57BL/6 male mice; details: 2 weeks post-WTI 16 Gy; 0.3 mg/kg subcutaneously 1 day prior to WTI
# Description: (§2) FIGS. 2A-2B show the effect of TPOm-pretreatment (1 day before irradiation at 0.3 mg/kg body weight by subcutaneous injection) on immune cell infiltration and permeability in the lungs of mice at 14 days post-WTI. […] 200× total magnification.
# as §1
# [5] = test system: lungs of mice after whole thoracic radiation (WTI); assay: Myeloperoxidase (MPO) staining of lung sections for neutrophil infiltration post-WTI; format: in vivo; details: post-WTI 16 Gy; 0.3 mg/kg subcutaneously 1 day before irradiation; FIG. 7C
# Description: (§3) FIGS. 7A-C show TPOm-pretreatment (1 day before irradiation at 0.3 mg/kg body weight by subcutaneous injection) on neutrophil infiltration of mice measured at 7 months post-WTI. […] 400× total magnification. […] Data are shown as means±SE. *P<0.05, ***P<0.0001.
# as §1
# At the time of harvest, the right lung was fixed with 10% formalin, then embedded and sectioned at […]. Anti-myeloperoxidase (MPO) antibody was obtained from Abcam (Cambridge, MA, USA). Immunoreactivity was visualized by ImmPACT histochemistry (Vector Labs, Burlingame, CA, USA) with hematoxylin counter staining. For quantitation of MPO+ cells in lung tissue, images were analyzed with ImageJ software (National Institutes of Health); stained cells were counted using the “analyze particles” module to assess positive staining. Data were quantified from 3 fields of 1 section per animal, and 5 animals per group.
# [6] = test system: lungs of mice after whole thoracic radiation (WTI); assay: KC protein in whole lung lysate by ELISA post-WTI; format: in vivo; details: post-WTI 16 Gy; 0.3 mg/kg subcutaneously 1 day before irradiation; FIG. 7A
# Description: as §3, §1
# Methods: Mice were treated as described in Example 1. Whole lung lysate was prepared from left lung tissue at the time of harvest. KC ELISA kit (R&D Systems, #DY453) was used according to manufacturer's instructions. For each sample, 2 replicates were measured for KC protein.
# [7] = test system: lungs of mice after whole thoracic radiation (WTI); assay: Protein in bronchoalveolar lavage by bicinchoninic acid assay (BCA) post-WTI; format: in vivo, C57BL/6 male mice; details: 2 weeks post-WTI 16 Gy; 0.3 mg/kg subcutaneously 1 day prior to WTI; p<0.05
# Description: as §2, §1
# [8] = test system: lungs of mice after whole thoracic radiation (WTI); assay: Collagen deposition in lungs by Trichrome Blue staining post-WTI; format: in vivo, C57BL/6 male mice; details: 7 months post-WTI 16 Gy; 0.3 mg/kg subcutaneously 1 day prior to WTI; p<0.05
# Description: FIGS. 3A-3B show the effect of TPOm-pretreatment (1 day before irradiation at 0.3 mg/kg body weight by subcutaneous injection) on collagen deposition in lungs of mice at 7 months post-WTI. […] 200× total magnification.
# as §1
# [9] = test system: mice exposed to 18 Gy WTI; assay: 8-month survival study after 18 Gy WTI; format: in vivo, C57BL/6 male mice
# Description: Mice were given a vehicle or TPOm injection (1 mg/kg), 1 day before irradiation (1×) or 1 day before irradiation and 7 days after radiation (2×) (n=10 for irradiated groups, n=5 for naïve). *P<0.05 vs. vehicle treated mice.
# as §1
substance,measurement,setting,value
methoxypolyethyleneglycol20000-propionyl-L-Isoleucyl-L-Glutamyl-Glycyl-L-Prolyl-L-Threonyl-L-Leucyl-L-Arginyl-L-Glutaminyl-L-2-Naphthylalanyl-L-Leucyl-L-Alanyl-L-Alanyl-L-Arginyl-Sarcosyl-Ne-(methoxypolyethyleneglycol20000-propionyl-L-Isoleucyl-L-Glutamyl-Glycyl-L-Prolyl-L-Threonyl-L-Leucyl-L-Arginyl-L-Glutaminyl-L-2-Naphthylalanyl-L-Leucyl-L-Alanyl-L-Alanyl-L-Arginyl-Sarcosyl-)-Lysinamide [TPOm],"mRNA levels of senescence marker p21, lower than vehicle",[1],52%
same,"mRNA expression of proinflammatory chemokine KC in lungs, lower than vehicle",[2],37%
same,"mRNA expression of proinflammatory chemokine MCP1 in lungs, lower than vehicle",[2],39%
same,"density in lungs by microCT, less than vehicle",[3],21%
same,cellularity by H&E staining,[4],higher cellularity in vehicle compared to TPOm treated mice
same,alveolar neutrophil accumulation (MPO staining),[5],alveolar neutrophil accumulation in significantly greater numbers than mice treated with TPOm
same,protein expression of KC in the lung (ELISA),[6],significantly reduced in the TPOm (RWJ-800088) group to a level similar to naïve
same,"protein leaked to bronchoalveolar lavage fluid, less than vehicle",[7],28%
same,"collagen deposition, lower than vehicle (Trichrome Blue staining)",[8],31%
same,survival,"[9]; vehicle 0%, p<0.01",40%
same,mortality,[9]; vs vehicle,significantly delayed in mortality
